# Target: EGFR (human) (UniProt P00533)
# Sequence (P00533 whole entry, looked up): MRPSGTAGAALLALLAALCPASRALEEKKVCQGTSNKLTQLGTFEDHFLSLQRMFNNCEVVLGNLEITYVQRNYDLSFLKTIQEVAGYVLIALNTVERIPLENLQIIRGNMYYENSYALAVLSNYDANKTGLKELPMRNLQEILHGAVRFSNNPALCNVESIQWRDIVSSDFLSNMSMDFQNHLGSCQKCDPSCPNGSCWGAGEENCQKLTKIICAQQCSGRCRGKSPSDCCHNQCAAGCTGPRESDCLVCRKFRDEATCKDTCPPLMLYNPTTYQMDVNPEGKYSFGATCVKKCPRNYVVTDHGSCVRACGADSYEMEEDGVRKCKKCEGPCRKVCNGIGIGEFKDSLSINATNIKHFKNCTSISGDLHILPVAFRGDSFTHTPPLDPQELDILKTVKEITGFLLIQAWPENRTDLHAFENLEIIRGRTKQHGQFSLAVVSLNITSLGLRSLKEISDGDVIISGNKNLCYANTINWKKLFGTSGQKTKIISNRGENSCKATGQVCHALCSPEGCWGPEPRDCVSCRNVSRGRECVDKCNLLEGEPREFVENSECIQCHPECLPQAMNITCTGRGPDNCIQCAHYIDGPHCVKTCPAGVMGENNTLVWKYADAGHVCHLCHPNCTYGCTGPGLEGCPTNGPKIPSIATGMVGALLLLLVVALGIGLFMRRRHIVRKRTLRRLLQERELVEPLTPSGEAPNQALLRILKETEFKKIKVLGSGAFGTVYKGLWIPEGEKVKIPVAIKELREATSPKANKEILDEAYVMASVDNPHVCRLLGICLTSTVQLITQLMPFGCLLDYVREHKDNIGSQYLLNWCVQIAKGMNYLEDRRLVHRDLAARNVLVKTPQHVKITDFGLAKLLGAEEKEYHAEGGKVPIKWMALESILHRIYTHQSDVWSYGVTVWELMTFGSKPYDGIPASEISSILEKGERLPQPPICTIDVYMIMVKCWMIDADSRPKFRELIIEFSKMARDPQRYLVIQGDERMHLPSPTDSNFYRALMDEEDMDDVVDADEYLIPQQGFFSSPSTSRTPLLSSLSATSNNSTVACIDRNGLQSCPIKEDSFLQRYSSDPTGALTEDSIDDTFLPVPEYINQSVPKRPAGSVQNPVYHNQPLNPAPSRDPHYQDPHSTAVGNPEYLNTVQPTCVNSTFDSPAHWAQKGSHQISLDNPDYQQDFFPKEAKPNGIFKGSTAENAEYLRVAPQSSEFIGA
row,SMILES,IC50 [nM]
1,Nc1cc2ncnc(Nc3cccc(F)c3)c2cn1,851
2,Nc1cc2ncnc(Nc3ccccc3Br)c2cn1,245
3,Nc1ccc2c(Nc3ccccc3)ncnc2c1,100
4,COc1cccc(Nc2ncnc3cc(N)ncc23)c1,132
5,Nc1cc2ncnc(Nc3cccc([N+](=O)[O-])c3)c2cn1,40.7
6,CN(C)c1cccc(Nc2ncnc3cc(N)ncc23)c1,1820

# Results, then the molecule that gave them:
row,IC50 [nM],SMILES
1,13.2,Fc1cc2ncnc(Nc3cccc(Br)c3)c2cn1
2,0.977,COc1cc2ncnc(Nc3ccc(Br)cc3)c2cc1OC
3,39.8,COc1cc2ncnc(Nc3cccc(Br)c3)c2cn1
4,29.5,CC(=O)Nc1cc2ncnc(Nc3cccc(Br)c3)c2cn1
